Source: patent US12617814B2, “Neuroactive steroids and methods of use thereof” (Sage Therapeutics, LLC, priority 2013, dated 2026)

These compounds were tested against NMDA receptor (GRIN1/GRIN2A) (Homo sapiens, UniProt Q05586+Q12879) (assay: NMDA potentiation, two electrode voltage clamp (TEVC) of Xenopus oocytes expressing NMDA receptor). Conditions: 10 μM compound, 3 μM Glutamate and Glycine.
Format: cell-based
Experimental: NMDA potentiation was assessed using either whole cell patch clamp of mammalian cells which expressed NMDA receptors, or using two-electrode voltage clamp (TEVC) of Xenopus Laevis oocytes expressing NMDA receptors.
The Two Electrode Voltage Clamp (TEVC) technique was used to investigate the effects of compounds (10 μM) on the NMDA receptor (GRIN1/GRIN2A) expressed in Xenopus oocytes. Glutamate/Glycine peak and steady-state currents were recorded from oocytes that expressed the NMDA receptor and the modulatory effects of the test items on these currents were investigated.
Ovaries were harvested from Xenopus Laevis females that had been deeply anesthetized by cooling at 4° C. and immersion in Tricaine methanesulfonate (MS-222 at a concentration of 150 mg/L) in sodium bicarbonate (300 mg/L). Once anesthetized the animal was decapitated and pithed following the rules of animal rights from the Geneva canton. A small piece of ovary was isolated for immediate preparation while the remaining part was placed at 4° C. in a sterile Barth solution containing in mM NaCl 88, KCl 1, NaHCO3 2.4, HEPES 10, MgSO4·7H2O 0.82, Ca(NO3)2·4H2O 0.33, CaCl2·6H2O 0.41, at pH 7.4, and supplemented with 20 μg/ml of kanamycin, 100 unit/ml penicillin and 100 μg/ml streptomycin. All recordings were performed at 18° C. and cells were super-fused with medium containing in mM: NaCl 82.5, KCl 2.5, HEPES 5, CaCl2·2H2O, ·6H2O 1, pH 7.4.
Oocytes were injected with either cDNAs encoding for the human GRIN1 and GRIN2A subunits, using a proprietary automated injection device (Hogg et al., J. Neurosci. Methods, (2008) 169: 65-75) and receptor expression was assessed using electrophysiology at least two days later. The ratio of cDNA injection for GRIN1 and GRIN2A was 1:1. Electrophysiological recordings were made using an automated process equipped with standard TEVC and data were captured and analyzed using a proprietary data acquisition and analysis software running under Matlab (Mathworks Inc.). The membrane potential of the oocytes was maintained at −80 mV throughout the experiments. To explore the effects of proprietary compounds, currents were evoked by applying 3 μM Glutamate and […] Glycine for 10 s. Oocytes were then washed for 90 s before being exposed to the test article at a concentration of 10 μM for 120 s. Following this, 3 μM Glutamate and […] Glycine were immediately reapplied for 10 s. Potentiation of both the peak current and the steady state current was assessed. For statistical analysis values were computed either with Excel (Microsoft) or Matlab (Mathworks Inc.). To obtain mean measurements with standard deviations, all experiments were carried out using at least three cells.
Glutamate was prepared as a concentrated stock solution ([…]) in water and then diluted in the recording medium to obtain the desired test concentration. Glycine was prepared as a stock solution at 1 M in water. Compounds were prepared as stock solution ([…]) in DMSO and then diluted in the recording medium to obtain the desired test concentration.

Chain of NMDA receptor (GRIN1/GRIN2A) (Q12879 23-1464, other chains not shown): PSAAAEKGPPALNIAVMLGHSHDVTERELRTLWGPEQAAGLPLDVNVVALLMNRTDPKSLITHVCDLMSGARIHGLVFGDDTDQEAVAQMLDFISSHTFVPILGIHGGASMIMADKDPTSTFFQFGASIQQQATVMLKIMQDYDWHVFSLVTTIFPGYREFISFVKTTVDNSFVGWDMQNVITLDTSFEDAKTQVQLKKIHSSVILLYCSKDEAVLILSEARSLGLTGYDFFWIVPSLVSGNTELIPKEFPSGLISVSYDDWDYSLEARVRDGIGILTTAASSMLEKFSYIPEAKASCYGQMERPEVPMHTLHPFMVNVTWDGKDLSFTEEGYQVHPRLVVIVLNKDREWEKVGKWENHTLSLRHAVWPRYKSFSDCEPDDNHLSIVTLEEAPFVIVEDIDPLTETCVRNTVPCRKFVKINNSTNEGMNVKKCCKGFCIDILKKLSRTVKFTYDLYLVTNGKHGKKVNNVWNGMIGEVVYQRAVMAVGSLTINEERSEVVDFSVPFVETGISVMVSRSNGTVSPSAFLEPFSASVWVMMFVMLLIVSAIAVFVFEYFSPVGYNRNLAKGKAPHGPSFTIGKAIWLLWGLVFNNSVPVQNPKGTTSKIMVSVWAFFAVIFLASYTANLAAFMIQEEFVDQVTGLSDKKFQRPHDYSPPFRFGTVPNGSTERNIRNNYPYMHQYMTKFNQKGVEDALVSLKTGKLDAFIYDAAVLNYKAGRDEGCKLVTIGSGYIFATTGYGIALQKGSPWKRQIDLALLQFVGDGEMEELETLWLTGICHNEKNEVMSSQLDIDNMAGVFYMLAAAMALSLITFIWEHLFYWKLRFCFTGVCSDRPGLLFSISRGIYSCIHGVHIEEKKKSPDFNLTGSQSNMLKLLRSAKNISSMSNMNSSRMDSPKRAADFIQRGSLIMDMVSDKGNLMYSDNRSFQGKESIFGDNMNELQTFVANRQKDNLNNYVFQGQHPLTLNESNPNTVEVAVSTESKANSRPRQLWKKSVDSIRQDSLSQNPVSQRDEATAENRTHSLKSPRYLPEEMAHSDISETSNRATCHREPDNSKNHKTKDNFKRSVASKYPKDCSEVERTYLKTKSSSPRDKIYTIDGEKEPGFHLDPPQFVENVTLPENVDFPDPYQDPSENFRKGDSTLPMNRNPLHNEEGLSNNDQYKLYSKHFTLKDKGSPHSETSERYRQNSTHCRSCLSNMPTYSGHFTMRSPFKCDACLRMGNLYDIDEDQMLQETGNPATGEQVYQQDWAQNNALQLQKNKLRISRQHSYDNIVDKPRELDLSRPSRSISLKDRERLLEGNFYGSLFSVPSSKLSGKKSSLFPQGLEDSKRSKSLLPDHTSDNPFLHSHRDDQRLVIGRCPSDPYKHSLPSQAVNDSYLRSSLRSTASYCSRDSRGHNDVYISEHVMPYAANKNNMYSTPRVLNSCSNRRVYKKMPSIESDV

Row | SMILES | activation at 10 µM
1 | C[C@H](CCC(C)(O)C(F)(F)F)[C@H]1CC[C@H]2[C@@H]3CC[C@H]4C[C@@](C)(O)CC[C@]4(C)[C@H]3CC[C@]12C (stereo partly drawn) [Compound 3-3] | 50 to 100%
2 | C#C[C@](C)(O)CC[C@@H](C)[C@H]1CC[C@H]2[C@@H]3CC=C4C[C@@](C)(O)CC[C@]4(C)[C@H]3CC[C@]12C [Compound 10-3] | 10 to 50%
3 | COCCC(C)(O)CC[C@@H](C)[C@H]1CC[C@H]2[C@@H]3CC=C4C[C@@](C)(O)CC[C@]4(C)[C@H]3CC[C@]12C (stereo partly drawn) [Compound 10-14] | 50 to 100%
4 | C[C@H](CCC(C)(O)C1CC1)[C@H]1CC[C@H]2[C@@H]3CC[C@H]4C[C@@](C)(O)CC[C@]4(C)[C@H]3CC[C@]12C (stereo partly drawn) [Compound 9-6] | 50 to 100%
5 | C[C@H](CC[C@@](C)(O)C(F)(F)F)[C@H]1CC[C@H]2[C@@H]3CC[C@H]4C[C@@](C)(O)CC[C@]4(C)[C@H]3CC[C@]12C [Compound 3-7] | 10 to 50%
6 | C[C@H](CC[C@@](C)(O)C1CC1)[C@H]1CC[C@H]2[C@@H]3CC=C4C[C@@](C)(O)CC[C@]4(C)[C@H]3CC[C@]12C [Compound 9-3] | 50 to 100%
7 | CCCC[C@](C)(O)CC[C@@H](C)[C@H]1CC[C@H]2[C@@H]3CC=C4C[C@@](C)(O)CC[C@]4(C)[C@H]3CC[C@]12C [Compound 7-4] | 50 to 100%
8 | COCC[C@](C)(O)CC[C@@H](C)[C@H]1CC[C@H]2[C@@H]3CC=C4C[C@@](C)(O)CC[C@]4(C)[C@H]3CC[C@]12C [Compound 10-22] | 50 to 100%
9 | CCC[C@@](C)(O)CC[C@@H](C)[C@H]1CC[C@H]2[C@@H]3CC=C4C[C@@](C)(O)CC[C@]4(C)[C@H]3CC[C@]12C [Compound 5-6] | 10 to 50%
10 | C=CCC(C)(O)CC[C@@H](C)[C@H]1CC[C@H]2[C@@H]3CC[C@H]4C[C@@](C)(O)CC[C@]4(C)[C@H]3CC[C@]12C (stereo partly drawn) [Compound 6-6] | 50 to 100%
11 | CCCC[C@@](C)(O)CC[C@@H](C)[C@H]1CC[C@H]2[C@@H]3CC[C@H]4C[C@@](C)(O)CC[C@]4(C)[C@H]3CC[C@]12C [Compound 7-7] | 10 to 50%
12 | C#C[C@@](C)(O)CC[C@@H](C)[C@H]1CC[C@H]2[C@@H]3CC[C@H]4C[C@@](C)(O)CC[C@]4(C)[C@H]3CC[C@]12C [Compound 10-9] | 10 to 50%
13 | C[C@H](CC(F)(F)[C@H](C)O)[C@H]1CC[C@H]2[C@@H]3CC=C4C[C@@](C)(O)CC[C@]4(C)[C@H]3CC[C@]12C [Compound 11-15] | 10 to 50%
14 | C[C@H](CC[C@](C)(O)C1CC1)[C@H]1CC[C@H]2[C@@H]3CC=C4C[C@@](C)(O)CC[C@]4(C)[C@H]3CC[C@]12C [Compound 9-4] | 50 to 100%
15 | C[C@H](CC[C@](C)(O)C(F)(F)F)[C@H]1CC[C@H]2[C@@H]3CC=C4C[C@@](C)(O)CC[C@]4(C)[C@H]3CC[C@]12C [Compound 3-5] | 10 to 50%
16 | C[C@H](CCC(C)(O)C(F)(F)F)[C@H]1CC[C@H]2[C@@H]3CC=C4C[C@@](C)(O)CC[C@]4(C)[C@H]3CC[C@]12C (stereo partly drawn) [Compound 3-2] | > 100%
17 | COCC[C@](C)(O)CC[C@@H](C)[C@H]1CC[C@H]2[C@@H]3CC[C@H]4C[C@@](C)(O)CC[C@]4(C)[C@H]3CC[C@]12C [Compound 10-17] | > 100%
18 | CCC[C@](C)(O)CC[C@@H](C)[C@H]1CC[C@H]2[C@@H]3CC=C4C[C@@](C)(O)CC[C@]4(C)[C@H]3CC[C@]12C [Compound 5-5] | 10 to 50%
19 | COCC[C@@](C)(O)CC[C@@H](C)[C@H]1CC[C@H]2[C@@H]3CC[C@H]4C[C@@](C)(O)CC[C@]4(C)[C@H]3CC[C@]12C [Compound 10-19] | 10 to 50%
20 | C[C@H](CC[C@@](C)(O)CCO)[C@H]1CC[C@H]2[C@@H]3CC[C@H]4C[C@@](C)(O)CC[C@]4(C)[C@H]3CC[C@]12C [Compound 10-16] | 10 to 50%

Row | SMILES | activation at 10 µM
21 | C=C[C@](C)(O)CC[C@@H](C)[C@H]1CC[C@H]2[C@@H]3CC=C4C[C@@](C)(O)CC[C@]4(C)[C@H]3CC[C@]12C [Compound 10-12A] | 10 to 50%
22 | C[C@H](CC[C@](C)(O)C1CC1)[C@H]1CC[C@H]2[C@@H]3CC[C@H]4C[C@@](C)(O)CC[C@]4(C)[C@H]3CC[C@]12C [Compound 9-8] | 10 to 50%
23 | C[C@H](CC(F)(F)C(C)(C)O)[C@H]1CC[C@H]2[C@@H]3CC=C4C[C@@](C)(O)CC[C@]4(C)[C@H]3CC[C@]12C [Compound 11-19] | 10 to 50%
24 | C[C@H](CC[C@](C)(O)CCO)[C@H]1CC[C@H]2[C@@H]3CC=C4C[C@@](C)(O)CC[C@]4(C)[C@H]3CC[C@]12C [Compound 10-21] | 10 to 50%
25 | CC(C)[C@](C)(O)CC[C@@H](C)[C@H]1CC[C@H]2[C@@H]3CC=C4C[C@@](C)(O)CC[C@]4(C)[C@H]3CC[C@]12C [Compound 8-8] | > 100%
26 | CC[C@]1(O)CC[C@@]2(C)[C@@H](CC[C@@H]3[C@@H]2CC[C@]2(C)[C@@H]([C@H](C)CCC(O)C(F)(F)F)CC[C@@H]32)C1 (stereo partly drawn) [Compound 2-5] | 50 to 100%
27 | C[C@H](CC[C@@](C)(O)C(F)(F)F)[C@H]1CC[C@H]2[C@@H]3CC=C4C[C@@](C)(O)CC[C@]4(C)[C@H]3CC[C@]12C [Compound 3-6] | 50 to 100%
28 | C#C[C@@](C)(O)CC[C@@H](C)[C@H]1CC[C@H]2[C@@H]3CC=C4C[C@@](C)(O)CC[C@]4(C)[C@H]3CC[C@]12C [Compound 10-4] | 10 to 50%
29 | C#CC(C)(O)CC[C@@H](C)[C@H]1CC[C@H]2[C@@H]3CC=C4C[C@@](C)(O)CC[C@]4(C)[C@H]3CC[C@]12C (stereo partly drawn) [Compound 10-2] | 50 to 100%
30 | C[C@H](CC[C@@](C)(O)CCO)[C@H]1CC[C@H]2[C@@H]3CC=C4C[C@@](C)(O)CC[C@]4(C)[C@H]3CC[C@]12C [Compound 10-20] | 10 to 50%
31 | CCCC[C@@](C)(O)CC[C@@H](C)[C@H]1CC[C@H]2[C@@H]3CC=C4C[C@@](C)(O)CC[C@]4(C)[C@H]3CC[C@]12C [Compound 7-5] | 10 to 50%
32 | C#CC(C)(O)CC[C@@H](C)[C@H]1CC[C@H]2[C@@H]3CC[C@H]4C[C@@](C)(O)CC[C@]4(C)[C@H]3CC[C@]12C (stereo partly drawn) [Compound 10-6] | 50 to 100%
33 | CC[C@]1(O)CC[C@@]2(C)C(=CC[C@H]3[C@@H]4CC[C@H]([C@H](C)CC[C@H](O)C(F)(F)F)[C@@]4(C)CC[C@@H]32)C1 [Compound 2-8] | 50 to 100%
34 | C=C[C@@](C)(O)CC[C@@H](C)[C@H]1CC[C@H]2[C@@H]3CC=C4C[C@@](C)(O)CC[C@]4(C)[C@H]3CC[C@]12C [Compound 10-12B] | 10 to 50%
35 | C=C[C@@](C)(O)CC[C@@H](C)[C@H]1CC[C@H]2[C@@H]3CC[C@H]4C[C@@](C)(O)CC[C@]4(C)[C@H]3CC[C@]12C [Compound 10-11] | 10 to 50%
36 | CC[C@](C)(O)CC[C@@H](C)[C@H]1CC[C@H]2[C@@H]3CC=C4C[C@@](C)(O)CC[C@]4(C)[C@H]3CC[C@]12C [Compound 4-12] | 50 to 100%
37 | CCC[C@@](C)(O)CC[C@@H](C)[C@H]1CC[C@H]2[C@@H]3CC[C@H]4C[C@@](C)(O)CC[C@]4(C)[C@H]3CC[C@]12C [Compound 5-8] | 50 to 100%
38 | C[C@H](CCC(C)(O)CCO)[C@H]1CC[C@H]2[C@@H]3CC=C4C[C@@](C)(O)CC[C@]4(C)[C@H]3CC[C@]12C (stereo partly drawn) [Compound 10-13] | 50 to 100%
39 | CC[C@@](C)(O)CC[C@@H](C)[C@H]1CC[C@H]2[C@@H]3CC=C4C[C@@](C)(O)CC[C@]4(C)[C@H]3CC[C@]12C [Compound 4-11] | > 100%
